Measurements reported in US12240828B2, “Heteroaromatic compounds as vanin inhibitors” (Boehringer Ingelheim International GmbH, priority 2018, dated 2025).

Columns and labels:
[1] = molecular target: T1, FLAG-tagged Vanin-1 (AA 22-493, T26I) (Homo sapiens, UniProt O95497, T26I); assay: Vanin-1 enzymatic assay; assay type: biochemical; conditions: 0.1 nM Vanin-1, 3 μM D-pantethine, pantothenic acid formation by RapidFire MS; geometric mean if multiple measurements; read-out: VNN-1 IC50
T1 construct: FLAG-tagged Vanin-1 (AA 22-493, T26I, produced internally); FLAG; made in house
T1 sequence (O95497 22-493 T26I): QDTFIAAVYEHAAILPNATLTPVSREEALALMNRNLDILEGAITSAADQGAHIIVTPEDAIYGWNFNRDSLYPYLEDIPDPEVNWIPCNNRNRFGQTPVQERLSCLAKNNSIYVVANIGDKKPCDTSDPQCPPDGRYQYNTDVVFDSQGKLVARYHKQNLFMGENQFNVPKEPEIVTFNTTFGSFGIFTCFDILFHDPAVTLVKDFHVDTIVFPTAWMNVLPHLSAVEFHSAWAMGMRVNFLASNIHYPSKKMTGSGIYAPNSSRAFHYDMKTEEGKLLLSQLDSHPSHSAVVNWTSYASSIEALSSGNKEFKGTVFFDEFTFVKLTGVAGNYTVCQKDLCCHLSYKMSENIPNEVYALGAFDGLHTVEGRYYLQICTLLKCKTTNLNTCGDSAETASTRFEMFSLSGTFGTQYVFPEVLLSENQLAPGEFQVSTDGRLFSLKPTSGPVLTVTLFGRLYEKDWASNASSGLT
Protocol: The test compounds are dissolved in 100% DMSO at a concentration of 10 mM and in a first step diluted in DMSO to a concentration of 5 mM, followed by serial dilution steps in 100% DMSO. Dilution factor and number of dilution steps may vary according to needs. Typically 8 different concentrations by 1:5 dilutions are prepared, a further intermediate dilutions of the substances is carried out with assay buffer resulting in 1% final DMSO concentration in the assay.
0.1 nM of FLAG-tagged Vanin-1 (AA 22-493, T26I, produced internally) and test compounds are incubated at room temperature for 20 minutes in assay buffer (1 mM DTT, 0.0025% Brij-35, 50 mM HEPES, pH7.5). D-Pantethine (Sigma, Cat #P2125-5G) in assay buffer is added (final concentration 3 μM) and incubated for additional 30 minutes at room temperature. Total assay volume typically is 40 μl but might be adjusted according to needs. Reaction is stopped by adding equal volume of stop solution as the reaction mixture to reach 100 nM HD-pantothenic acid (as an internal standard) and 1% TFA. Assay plates are centrifuged for 2 minutes and the formation of pantothenic acid is detected by RapidFire Mass Spectrometry (mobile phase A: 0.1% formic acid and 0.01% trifluoroacetic acid in water; mobile phase B: 47.5% acetonitrile, 47.5% methanol, 0.1% formic acid and 0.01% trifluoroacetic acid in water) using a C18, 12 μL cartridge (Agilent Cat #G9205A).
The values given in Table I result from measurements of one or more samples. In case of multiple measurements the geometric mean values are given.

Pantetheinase (vanin) = assay: Human Whole Blood assay; assay type: cell-based; conditions: pantethine substrate, pantothenic acid formation by RapidFire MS, read-out: HWB IC50
Protocol: Human Whole Blood assay: Pantetheinase (vanin) converts panteheine into pantothenic acid and cysteamine. Accordingly, in the described protocol vanin activity is quantified by formation of pantothenic acid after pantetheine supplementation via pantethine. The assay is applicable to identify vanin inhibitors. Compound stocks are dissolved in DMSO at 10 mM. Further dilutions are performed in RPMI 1640 medium (Gibco, #A-10491-01) and final concentrations in the assay are 0.032 nM-500 nM.
Human blood is drawn into a blood bag (1% heparin, 50 I.E./mL). Blood is aliquoted into cavities of 96-deep-well plates at 290 μL and mixed with 10 μL compound solution or vehicle (30 sec at 1400 rpm on a shaker). Equilibration follows at room temperature, 250 rpm and for 30 min. The assay is starts by adding 10 μL of substrate solution (20 μM pantethine in 1 mM DTT, 0.0025% Brij-35, 50 mM HEPES, pH7.5) to each well, except for some blank wells which receive […] substrate buffer (1 mM DTT, 0.0025% Brij-35, 50 mM HEPES, pH7.5) only. Samples are thoroughly shaken (30 sec, 1400 rpm) and reaction is allowed to take place at room temperature, 250 rpm and for 5 min. The reaction is stopped by addition of a vanin tool inhibitor in excess (BI-1 total conc. 10 μM). Centrifugation of the plate follows at 4° C., 665 G for 10 min. Then the blood plasma samples (100 μL) are transferred into another 96-deep-well plate and proteins are precipitated (5 min on ice) by adding 100 μL of ice cold precipitation solution (1 μM labelled pantothenic acid (di-β-alanine-13C6,15N2 calcium salt, Sigma, #705837) in acetonitrile). Afterwards the plate is centrifuged (4° C., 3220 G, 10 min) and supernatants (50 μL) are collected into another 96-deep-well plate and mixed (10 sec, 1400 rpm) with 150 μL ice cold formic acid (0.1%, Carl Roth GmbH+Co.KG, #CP03.1). The formation of pantothenic acid is detected by RapidFire Mass Spectrometry. A TripleQuad 6500+ (ABSciex, Germany) is equipped with an LC-1290 system, a RapidFire autosampler (Agilent, Germany) and a C18 cartridge Type C 12 μL (Agilent Cat #G9526-80000). Mobile phase A is consisting of 0.09% formic acid and 0.01% trifluoroacetic acid in water and mobile phase B of 0.09% formic acid and 0.01% trifluoroacetic acid in acetonitrile/methanol/water=47.5/47.5/5.

Structure (SMILES) | IC50 [1] [nM] | IC50 (Pantetheinase (vanin)) [nM]
CN(C)c1ccc(CNc2ccc(C(=O)N3CC[C@H](N(C)C(=O)C4CC4)C3)cn2)cn1 [Example 1.44] | 0.91 | 7.03
CC(=O)N(C)[C@H]1CCN(C(=O)c2ccc(NCc3ccc(Cl)cc3)nc2)C1 [Example 4.1, N-[(3S)-1-(6-{[(4-Chlorophenyl)methyl]amino}pyridine-3-carbonyl)pyrrolidin-3-yl]-N-methylacetamide] | 0.68 | 5.88
CC(=O)N(C)[C@H]1CCN(C(=O)c2ccc(NCc3cncc(Br)c3)nc2)C1 [Example 1.41] | 0.77 | 
O=C(N[C@H]1CCN(C(=O)c2ccc(NC3(c4cncnc4)CC3)nc2)C1)C1CC1 [Example 8.13] | 4.28 | 
CC[C@H](Nc1ccc(C(=O)N2CC[C@H](N(C)C(C)=O)C2)cn1)c1ccc(C(F)F)cc1 [Example 1.62] | 2.36 | 
CC(=O)N(C)[C@H]1CCN(C(=O)c2ccc(NCc3ccccn3)nc2)C1 [Example 1.56] | 1.65 | 
CC(=O)N(C)[C@H]1CCN(C(=O)c2ccc(NCc3ccnn3C)nc2)C1 [Example 1.90] | 9.37 | 
CC(=O)N(C)[C@H]1CCN(C(=O)c2ccc(NCc3ccncc3)nc2)C1 [Example 1.87] | 8.45 | 
CC(=O)N(C)[C@H]1CCN(C(=O)c2ccc(NCc3cccnn3)nc2)C1 [Example 1.49] | 1.04 | 
CC(=O)N(C)[C@H]1CCN(C(=O)c2ccc(NC(C)c3ccccc3)nc2)C1 (stereo partly shown) [Example 9.7] | 0.72 | 
CN(C)c1ccc(CNc2ccc(C(=O)N3CC[C@H](N(C)C(=O)C4(C)CCC4)C3)cn2)cn1 [Example 1.46] | 0.96 | 
CC(=O)N(C)[C@H]1CCN(C(=O)c2ccc(NC(C)c3nccs3)nc2)C1 (single isomer, unassigned) [Example 5.1.B] | 0.94 | 
CC(=O)N(C)[C@H]1CCN(C(=O)c2ccc(NCc3cc(CC(C)C)n[nH]3)nc2)C1 [Example 1.88] | 8.83 | 
CC(=O)N(C)[C@H]1CCN(C(=O)c2ccc(NC3CCCc4cn[nH]c43)nc2)C1 (stereo partly shown) [Example 1.81] | 6.99 | 
CC(=O)N(C)[C@H]1CCN(C(=O)c2ccc(NCc3cccc(-c4nc(CC(F)(F)F)no4)c3)nc2)C1 [Example 1.48] | 0.98 | 
C[C@H](Nc1ccc(C(=O)N2CC[C@H](N(C)C(=O)C3(C)CCC3)C2)cn1)c1cnccn1 [Example 1.76] | 4.33 | 
CC(=O)N(C)[C@H]1CCN(C(=O)c2ccc(N[C@@H](C)c3cccc(S(=O)(=O)N(C)C)c3)nc2)C1 [Example 1.45] | 0.94 | 
CC(=O)N(C)[C@H]1CCN(C(=O)c2ccc(N[C@@H](C)c3ccc(C#N)nc3)nc2)C1 [Example 11.1, N-[(3S)-1-(6-{[(1S)-1-(6-cyanopyridin-3-yl)ethyl]amino}pyridine-3-carbonyl)pyrrolidin-3-yl]-N-methylacetamide] | 0.74 | 
CC(=O)N(C)[C@H]1CCN(C(=O)c2ccc(NC(C)c3cccnc3)nc2)C1 (single isomer, unassigned) [Example 6.1.B] | 1.43 | 
CN(C(=O)C1(C)CCC1)[C@H]1CCN(C(=O)c2ccc(NCc3cnccc3C(F)(F)F)nc2)C1 [Example 1.39] | 0.66 | 

Stronger by IC50 [1], values ahead:

IC50 [1] [nM] | IC50 (Pantetheinase (vanin)) [nM] | Structure (SMILES)
0.54 |  | CC(=O)Nc1cccc(C(C)Nc2ccc(C(=O)N3CC[C@H](N(C)C(C)=O)C3)cn2)c1 (stereo partly shown) [Example 1.36]
0.53 |  | CC(=O)N(C)[C@H]1CCN(C(=O)c2ccc(NC3CCc4[nH]ncc43)nc2)C1 (stereo partly shown) [Example 1.35]
0.47 |  | CC(=O)N(C)[C@H]1CCN(C(=O)c2ccc(NCc3ccc(N)nc3)nc2)C1 [Example 1.34]
0.4 | 2.19 | CC(=O)N(C)[C@H]1CCN(C(=O)c2ccc(N[C@@H](C)c3ccc(F)cc3)nc2)C1 [Example 9.5]
0.39 | 2.78 | CC(=O)N(C)[C@H]1CCN(C(=O)c2ccc(N[C@@H](C)c3ccc(C(F)(F)F)nc3)nc2)C1 [Example 9.1, N-Methyl-N-[(3S)-1-(6-{[(1S)-1-[6-(trifluoromethyl)pyridin-3-yl]ethyl]amino}pyridine-3-carbonyl)pyrrolidin-3-yl]acetamide]
0.35 |  | CC(=O)N(C)[C@H]1CCN(C(=O)c2ccc(NC(C)c3cccc(C(N)=O)c3)nc2)C1 (stereo partly drawn) [Example 10.1, 3-[1-({5-[(3S)-3-(N-Methylacetamido)pyrrolidine-1-carbonyl]pyridin-2-yl}amino)ethyl]benzamide]
0.34 |  | COC(=O)c1cccc(C(C)Nc2ccc(C(=O)N3CC[C@H](N(C)C(C)=O)C3)cn2)c1 (stereo partly shown) [Example 1.29]
0.32 |  | CN(C(=O)C1(C)CCC1)[C@H]1CCN(C(=O)c2ccc(NCc3ccc(Cl)nc3)nc2)C1 [Example 1.28]
0.3 | 4.39 | CC(=O)N(C)[C@H]1CCN(C(=O)c2ccc(NC(C)c3cccc(S(N)(=O)=O)c3)nc2)C1 (stereo partly shown) [Example 1.27]
0.27 |  | CNC(=O)c1cccc([C@H](C)Nc2ccc(C(=O)N3CC[C@H](N(C)C(C)=O)C3)cn2)c1 [Example 1.25]
0.24 | 2.51 | COc1ccncc1CNc1ccc(C(=O)N2CC[C@H](N(C)C(=O)C3(C)CCC3)C2)cn1 [Example 1.22]
0.21 | 1.52 | Cc1ncccc1CNc1ccc(C(=O)N2CC[C@H](N(C)C(=O)C3CC3)C2)cn1 [Example 1.15]
0.21 |  | CC(=O)N(C)[C@H]1CCN(C(=O)c2ccc(NC3(c4ccccc4)CCC3)nc2)C1 [Example 4.6]
0.17 |  | CN(C(=O)C1CC1)[C@H]1CCN(C(=O)c2ccc(NCc3ccc(Cl)nc3)nc2)C1 [Example 1.13]
0.16 | 6.13 | CC(=O)N(C)[C@H]1CCN(C(=O)c2ccc(N[C@@H](C)c3cccc(C#N)c3)nc2)C1 [Example 1.12]
0.15 |  | CC(=O)N(C)[C@H]1CCN(C(=O)c2ccc(NC3(c4ccc(Cl)cc4)CCC3)nc2)C1 [Example 9.2]
0.12 |  | CN(C(=O)C1(C)CCC1)[C@H]1CCN(C(=O)c2ccc(NCc3cccnc3Cl)nc2)C1 [Example 1.7]
0.11 |  | CN(C(=O)C1(C)CCC1)[C@H]1CCN(C(=O)c2ccc(NC(C)(C)c3cccnc3)nc2)C1 [Example 8.1, N,1-Dimethyl-N-[(3S)-1-(6-{[2-(pyridin-3-yl)propan-2-yl]amino}pyridine-3-carbonyl)pyrrolidin-3-yl]cyclobutane-1-carboxamide]
0.09 | 2.59 | CC(=O)N(C)[C@H]1CCN(C(=O)c2ccc(NC(C)c3cccnc3)nc2)C1 (single isomer, unassigned) [Example 6.1.A]
0.09 |  | CN(C(=O)C1CC(F)(F)C1)[C@H]1CCN(C(=O)c2ccc(NC(C)(C)c3ccccc3)nc2)C1 [Example 2.3]
